According to ChEMBL document CHEMBL1201862, “PubChem BioAssay data set” (2004):
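Where inhibition never reached the appropriate level, the endpoint shown equals the highest concentration tested. Otherwise, values were interpolated linearly from a five-concentration, 48-hour dose response in 96-well plates. At the GI50, growth is halved.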 Active and inactive are the calls of the source. Cut-off read from the data, not from the text of the source: active = GI50 up to about 1.1 µM and inactive = higher.

What was measured:
Test in all cases: NCI tumour cell line growth inhibition, 48 h
[1] = system: A498
[2] = system: HCT-15
[3] = system: HL-60
[4] = system: LOX IMVI
[5] = system: M14
[6] = system: MOLT-4
[7] = system: Malme-3M
[8] = system: NCI-H226
[9] = system: NCI-H522
[10] = system: OVCAR-8
[11] = system: SF-295
[12] = system: SN12C
[13] = system: SNB-75
[14] = system: SR
[15] = system: TK-10
[16] = system: UACC-257
[17] = system: DU-145
[18] = system: MCF7
[19] = system: RXF 393

SMILES	GI50 [1]	GI50 [2]	GI50 [3]	GI50 [4]	GI50 [5]	GI50 [6]	GI50 [7]	GI50 [8]	GI50 [9]	GI50 [10]	GI50 [11]	GI50 [12]	GI50 [13]	GI50 [14]	GI50 [15]	GI50 [16]	GI50 [17]	GI50 [18]	GI50 [19]
COC(=O)/C(=N\NC(N)=O)C(C(=O)C(=O)Nc1ccccc1C(=O)OC)c1nc2ccc(C(=O)c3ccccc3)cc2nc1O (stereo not given)	> 100 µM (inactive)	> 100 µM	> 100 µM (inactive)	> 100 µM (inactive)	> 100 µM (inactive)	> 100 µM (inactive)	> 100 µM (inactive)	> 100 µM (inactive)	> 100 µM (inactive)	> 100 µM (inactive)	> 100 µM (inactive)	> 100 µM (inactive)	> 100 µM (inactive)	> 100 µM (inactive)	> 100 µM (inactive)	> 100 µM (inactive)			
CCOC(=O)C1C(C)C2(C#N)C(=N)OC1(C)C2(C#N)C#N (stereo not given)	> 100 µM (inactive)	12.5 µM	21.8 µM (inactive)	26.8 µM (inactive)	> 100 µM (inactive)		77.3 µM (inactive)	73.8 µM (inactive)	71.9 µM (inactive)	> 100 µM (inactive)	> 100 µM (inactive)	64.9 µM (inactive)	27.6 µM (inactive)		77.6 µM (inactive)	42.1 µM (inactive)	78.5 µM (inactive)	55.2 µM (inactive)	25.8 µM (inactive)
COc1cc(-c2cc(OC)c(OC)c3ccc(Br)cc23)c2cc(Br)ccc2c1OC	23.8 µM (inactive)	63.2 µM		19.3 µM (inactive)	23.2 µM (inactive)	45.7 µM (inactive)	24.1 µM (inactive)	23.3 µM (inactive)	42.9 µM (inactive)		18.6 µM (inactive)	26 µM (inactive)		34.4 µM (inactive)	31.1 µM (inactive)	46.1 µM (inactive)	29 µM (inactive)	47.2 µM (inactive)	15.1 µM (inactive)
Cn1c(=O)nc2n(-c3ccc(Cl)cc3)c3ccc(Cl)cc3nc-2c1=O	5.58 µM (inactive)	8.02 µM	2.68 µM (inactive)	3.14 µM (inactive)	9.06 µM (inactive)	16.8 µM (inactive)		11.5 µM (inactive)	6.35 µM (inactive)	3.98 µM (inactive)	4.88 µM (inactive)	13.1 µM (inactive)	1.46 µM (inactive)	7.62 µM (inactive)	18.2 µM (inactive)	3.4 µM (inactive)			2.04 µM (inactive)
CN(C)CCCOCCn1c2c(c3ccccc31)CCCC2		15 µM	5.19 µM (inactive)	16.1 µM (inactive)	15.7 µM (inactive)	13.7 µM (inactive)	18 µM (inactive)	29.6 µM (inactive)		17.5 µM (inactive)	20 µM (inactive)	16.9 µM (inactive)	13.1 µM (inactive)	18.1 µM (inactive)	18.4 µM (inactive)	18.2 µM (inactive)	27.9 µM (inactive)	16.4 µM (inactive)	
CC(=O)OCC1OC(n2c(-c3ccccc3)c(C(C)=O)c(-c3cccc4ccccc34)c(C#N)c2=S)C(OC(C)=O)C(OC(C)=O)C1OC(C)=O (stereo not given)	> 100 µM (inactive)	> 100 µM	> 100 µM (inactive)	> 100 µM (inactive)	> 100 µM (inactive)	> 100 µM (inactive)	> 100 µM (inactive)	> 100 µM (inactive)	> 100 µM (inactive)	> 100 µM (inactive)	> 100 µM (inactive)	> 100 µM (inactive)		> 100 µM (inactive)	> 100 µM (inactive)	> 100 µM (inactive)	> 100 µM (inactive)	> 100 µM (inactive)	> 100 µM (inactive)
C=C1C(=O)O[C@H]2/C=C(/C)C3=CC(=O)[C@@](C)(C[C@@H](OC(=O)/C(C)=C\C)C12)O3 (stereo not given in full)	5.2 µM (inactive)	0.216 µM	< 0.0451 µM (active)	0.272 µM (active)	1.85 µM (inactive)	1.87 µM (inactive)		2.59 µM (inactive)	0.138 µM (active)	0.863 µM (active)	12 µM (inactive)	1.36 µM (inactive)	8.69 µM (inactive)	0.083 µM (active)		1.73 µM (inactive)	2.58 µM (inactive)	0.36 µM (active)	0.265 µM (active)
O=C(Nc1ccc(C(F)(F)F)cc1[N+](=O)[O-])C(=O)C(C(=O)c1ccc2ccccc2c1)C1OC(=O)c2ccccc21 (stereo not given)	4.09 µM (inactive)	8.81 µM	8.28 µM (inactive)	6.38 µM (inactive)	13.6 µM (inactive)	2.26 µM (inactive)	11.6 µM (inactive)	0.681 µM (active)	7.11 µM (inactive)	5.07 µM (inactive)	4.85 µM (inactive)	12.9 µM (inactive)	6.97 µM (inactive)	2.81 µM (inactive)	18.5 µM (inactive)	10.1 µM (inactive)			2.94 µM (inactive)
FC(F)(F)c1ccc(/C=N/C23CC4CC(CC(C4)C2)C3)cc1	> 100 µM (inactive)	> 100 µM	> 100 µM (inactive)	> 100 µM (inactive)	> 100 µM (inactive)	> 100 µM (inactive)	> 100 µM (inactive)	> 100 µM (inactive)	> 100 µM (inactive)	> 100 µM (inactive)	> 100 µM (inactive)	> 100 µM (inactive)	> 100 µM (inactive)	> 100 µM (inactive)	> 100 µM (inactive)	> 100 µM (inactive)			> 100 µM (inactive)
CCCCNC(=O)NNC(=O)c1cc(/C=C/c2cccc([N+](=O)[O-])c2)ncn1	> 100 µM (inactive)	87.3 µM	> 100 µM (inactive)	34.2 µM (inactive)	> 100 µM (inactive)	> 100 µM (inactive)	> 100 µM (inactive)	> 100 µM (inactive)	> 100 µM (inactive)	> 100 µM (inactive)	> 100 µM (inactive)	> 100 µM (inactive)	> 100 µM (inactive)	34.8 µM (inactive)	> 100 µM (inactive)	> 100 µM (inactive)			> 100 µM (inactive)
CCN1N=CSC12C(=O)N(c1ccccc1)C(=O)N2c1ccccc1 (stereo not given)	> 100 µM (inactive)		80.5 µM (inactive)	> 100 µM (inactive)	> 100 µM (inactive)	> 100 µM (inactive)	> 100 µM (inactive)	> 100 µM (inactive)	> 100 µM (inactive)	> 100 µM (inactive)	> 100 µM (inactive)	> 100 µM (inactive)	> 100 µM (inactive)	> 100 µM (inactive)	> 100 µM (inactive)	> 100 µM (inactive)			> 100 µM (inactive)
CC(C)(C)C1CCC(=O)C(C(O)CC2CC(=O)N(c3ccccc3)C(=O)C2)C1 (stereo not given)	> 100 µM (inactive)	> 100 µM	> 100 µM (inactive)	49.5 µM (inactive)	> 100 µM (inactive)	54.5 µM (inactive)	> 100 µM (inactive)	> 100 µM (inactive)	50.4 µM (inactive)	> 100 µM (inactive)	> 100 µM (inactive)	> 100 µM (inactive)	> 100 µM (inactive)	81.3 µM (inactive)	> 100 µM (inactive)	> 100 µM (inactive)			> 100 µM (inactive)
